From ChEMBL document CHEMBL1201862, “PubChem BioAssay data set” (2004)
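Cells were grown in 96-well plates and exposed to each compound for 48 hours at five concentrations; endpoints were interpolated linearly between bracketing concentrations, or set to the highest concentration if not reached. GI50 marks 50% less growth.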 Activity calls are given as the source filed them. Cut-off read from the data, not from the text of the source: active = GI50 up to about 1.1 µM and inactive = higher.

Key:
Experiment in all cases: NCI-60 cell line screen, 48 h
NCI-H460 = test system: NCI-H460
MDA-MB-435 = test system: MDA-MB-435
MOLT-4 = test system: MOLT-4
HT-29 = test system: HT-29
TK-10 = test system: TK-10
SK-MEL-28 = test system: SK-MEL-28
A549 = test system: A549
HOP-62 = test system: HOP-62
Hs-578T = test system: Hs-578T
IGROV-1 = test system: IGROV-1
RXF 393 = test system: RXF 393
Malme-3M = test system: Malme-3M
T47D = test system: T47D
CCRF-CEM = test system: CCRF-CEM
SW-620 = test system: SW-620
SK-OV-3 = test system: SK-OV-3
SR = test system: SR
BT-549 = test system: BT-549
M14 = test system: M14
HCC 2998 = test system: HCC 2998
OVCAR-4 = test system: OVCAR-4
UO-31 = test system: UO-31
A498 = test system: A498
786-0 = test system: 786-0
U-251 = test system: U-251
K562 = test system: K562
NCI-H23 = test system: NCI-H23
HL-60 = test system: HL-60
LOX IMVI = test system: LOX IMVI
OVCAR-5 = test system: OVCAR-5
MCF7 = test system: MCF7
HCT-116 = test system: HCT-116
HOP-92 = test system: HOP-92
SN12C = test system: SN12C
HCT-15 = test system: HCT-15
CAKI-1 = test system: CAKI-1
OVCAR-8 = test system: OVCAR-8
EKVX = test system: EKVX
MDA-N = test system: MDA-N
NCI-H226 = test system: NCI-H226
NCI/ADR-RES = test system: NCI/ADR-RES
SF-539 = test system: SF-539
SK-MEL-2 = test system: SK-MEL-2
RPMI-8226 = test system: RPMI-8226
MDA-MB-231 = test system: MDA-MB-231
DU-145 = test system: DU-145
SNB-19 = test system: SNB-19
SNB-75 = test system: SNB-75
PC-3 = test system: PC-3
ACHN = test system: ACHN
SF-268 = test system: SF-268
KM12 = test system: KM12
UACC-257 = test system: UACC-257
OVCAR-3 = test system: OVCAR-3
NCI-H522 = test system: NCI-H522
UACC-62 = test system: UACC-62
SK-MEL-5 = test system: SK-MEL-5
COLO 205 = test system: COLO 205
SF-295 = test system: SF-295

CC/C=C\C=C/C(=O)N/C=C/CCC
GI50 (NCI-H460): > 100 µM (inactive)
GI50 (MDA-MB-435): > 100 µM (inactive)
GI50 (MOLT-4): 22.8 µM (inactive)
GI50 (HT-29): 78.3 µM (inactive)
GI50 (TK-10): > 100 µM (inactive)
GI50 (SK-MEL-28): > 100 µM (inactive)
GI50 (A549): > 100 µM (inactive)
GI50 (HOP-62): > 100 µM (inactive)
GI50 (Hs-578T): > 100 µM (inactive)
GI50 (IGROV-1): > 100 µM (inactive)
GI50 (RXF 393): > 100 µM (inactive)
GI50 (Malme-3M): > 100 µM (inactive)
GI50 (T47D): 62.8 µM (inactive)
GI50 (CCRF-CEM): 4.27 µM (inactive)
GI50 (SW-620): > 100 µM (inactive)
GI50 (SK-OV-3): > 100 µM (inactive)
GI50 (SR): 33.3 µM (inactive)
GI50 (BT-549): > 100 µM (inactive)
GI50 (M14): > 100 µM (inactive)
GI50 (HCC 2998): 23.3 µM (inactive)
GI50 (OVCAR-4): > 100 µM (inactive)
GI50 (UO-31): > 100 µM (inactive)
GI50 (A498): 23.5 µM (inactive)
GI50 (786-0): > 100 µM (inactive)
GI50 (U-251): > 100 µM (inactive)
GI50 (K562): > 100 µM (inactive)
GI50 (NCI-H23): > 100 µM (inactive)
GI50 (HL-60): > 100 µM (inactive)
GI50 (LOX IMVI): > 100 µM (inactive)
GI50 (OVCAR-5): > 100 µM (inactive)
GI50 (MCF7): 78.3 µM (inactive)
GI50 (HCT-116): 38.9 µM (inactive)
GI50 (HOP-92): 27.7 µM (inactive)
GI50 (SN12C): > 100 µM (inactive)
GI50 (HCT-15): > 100 µM
GI50 (CAKI-1): > 100 µM (inactive)
GI50 (OVCAR-8): > 100 µM (inactive)
GI50 (EKVX): > 100 µM (inactive)
GI50 (MDA-N): > 100 µM (inactive)
GI50 (NCI-H226): > 100 µM (inactive)
GI50 (NCI/ADR-RES): > 100 µM (inactive)
GI50 (SF-539): > 100 µM (inactive)
GI50 (SK-MEL-2): > 100 µM (inactive)
GI50 (RPMI-8226): 40.2 µM (inactive)
GI50 (MDA-MB-231): > 100 µM (inactive)
GI50 (DU-145): > 100 µM (inactive)
GI50 (SNB-19): > 100 µM (inactive)
GI50 (SNB-75): > 100 µM (inactive)
GI50 (PC-3): 85.1 µM (inactive)
GI50 (ACHN): > 100 µM (inactive)
GI50 (SF-268): > 100 µM (inactive)
GI50 (KM12): > 100 µM (inactive)
GI50 (UACC-257): > 100 µM (inactive)
GI50 (OVCAR-3): 58.3 µM (inactive)
GI50 (NCI-H522): 17.5 µM (inactive)
GI50 (UACC-62): 47.2 µM (inactive)

CCOc1cc(/C=N/c2nc3cc4sc(/N=C/c5ccc(O)c(OCC)c5)nc4cc3s2)ccc1O
GI50 (NCI-H460): 20.4 µM (inactive)
GI50 (MDA-MB-435): > 100 µM (inactive)
GI50 (MOLT-4): 30.8 µM (inactive)
GI50 (HT-29): 60.4 µM (inactive)
GI50 (SK-MEL-5): 71.8 µM (inactive)
GI50 (TK-10): > 100 µM (inactive)
GI50 (SK-MEL-28): 21.3 µM (inactive)
GI50 (A549): 52.4 µM (inactive)
GI50 (HOP-62): > 100 µM (inactive)
GI50 (Hs-578T): > 100 µM (inactive)
GI50 (IGROV-1): > 100 µM (inactive)
GI50 (RXF 393): > 100 µM (inactive)
GI50 (Malme-3M): > 100 µM (inactive)
GI50 (T47D): > 100 µM (inactive)
GI50 (COLO 205): 24.7 µM (inactive)
GI50 (SW-620): 38.7 µM (inactive)
GI50 (SK-OV-3): > 100 µM (inactive)
GI50 (SR): 12.9 µM (inactive)
GI50 (BT-549): > 100 µM (inactive)
GI50 (M14): > 100 µM (inactive)
GI50 (HCC 2998): > 100 µM (inactive)
GI50 (OVCAR-4): > 100 µM (inactive)
GI50 (UO-31): > 100 µM (inactive)
GI50 (A498): > 100 µM (inactive)
GI50 (786-0): > 100 µM (inactive)
GI50 (U-251): > 100 µM (inactive)
GI50 (K562): 60.5 µM (inactive)
GI50 (NCI-H23): > 100 µM (inactive)
GI50 (HL-60): 3.62 µM (inactive)
GI50 (LOX IMVI): 55.8 µM (inactive)
GI50 (OVCAR-5): > 100 µM (inactive)
GI50 (MCF7): 82 µM (inactive)
GI50 (HCT-116): > 100 µM (inactive)
GI50 (HOP-92): > 100 µM (inactive)
GI50 (SN12C): 76.7 µM (inactive)
GI50 (HCT-15): > 100 µM
GI50 (SF-295): > 100 µM (inactive)
GI50 (CAKI-1): > 100 µM (inactive)
GI50 (OVCAR-8): > 100 µM (inactive)
GI50 (EKVX): 79.1 µM (inactive)
GI50 (MDA-N): 93.3 µM (inactive)
GI50 (NCI-H226): 25.8 µM (inactive)
GI50 (NCI/ADR-RES): > 100 µM (inactive)
GI50 (SF-539): 20.7 µM (inactive)
GI50 (SK-MEL-2): > 100 µM (inactive)
GI50 (RPMI-8226): > 100 µM (inactive)
GI50 (MDA-MB-231): > 100 µM (inactive)
GI50 (DU-145): > 100 µM (inactive)
GI50 (SNB-19): > 100 µM (inactive)
GI50 (SNB-75): > 100 µM (inactive)
GI50 (PC-3): > 100 µM (inactive)
GI50 (ACHN): > 100 µM (inactive)
GI50 (SF-268): > 100 µM (inactive)
GI50 (KM12): > 100 µM (inactive)
GI50 (UACC-257): > 100 µM (inactive)
GI50 (OVCAR-3): > 100 µM (inactive)
GI50 (NCI-H522): 50.4 µM (inactive)
GI50 (UACC-62): > 100 µM (inactive)

CCCCCc1cc(CCCC)sc1-c1ccco1
GI50 (NCI-H460): > 100 µM (inactive)
GI50 (MDA-MB-435): 66.5 µM (inactive)
GI50 (MOLT-4): 51.9 µM (inactive)
GI50 (HT-29): 45 µM (inactive)
GI50 (SK-MEL-5): > 100 µM (inactive)
GI50 (TK-10): > 100 µM (inactive)
GI50 (SK-MEL-28): > 100 µM (inactive)
GI50 (A549): 40 µM (inactive)
GI50 (HOP-62): > 100 µM (inactive)
GI50 (Hs-578T): > 100 µM (inactive)
GI50 (IGROV-1): > 100 µM (inactive)
GI50 (RXF 393): 45.8 µM (inactive)
GI50 (Malme-3M): 40 µM (inactive)
GI50 (T47D): > 91.2 µM (inactive)
GI50 (COLO 205): > 100 µM (inactive)
GI50 (CCRF-CEM): 30.5 µM (inactive)
GI50 (SW-620): > 100 µM (inactive)
GI50 (SK-OV-3): > 100 µM (inactive)
GI50 (SR): 44.2 µM (inactive)
GI50 (BT-549): > 100 µM (inactive)
GI50 (M14): 97.5 µM (inactive)
GI50 (HCC 2998): > 95.9 µM (inactive)
GI50 (OVCAR-4): > 100 µM (inactive)
GI50 (UO-31): > 100 µM (inactive)
GI50 (A498): > 100 µM (inactive)
GI50 (786-0): > 100 µM (inactive)
GI50 (U-251): > 76.7 µM (inactive)
GI50 (K562): > 58.2 µM (inactive)
GI50 (NCI-H23): > 100 µM (inactive)
GI50 (HL-60): 21.7 µM (inactive)
GI50 (LOX IMVI): 49.9 µM (inactive)
GI50 (OVCAR-5): > 87.3 µM (inactive)
GI50 (MCF7): 76.4 µM (inactive)
GI50 (HCT-116): 29.6 µM (inactive)
GI50 (HOP-92): > 100 µM (inactive)
GI50 (SN12C): > 100 µM (inactive)
GI50 (HCT-15): > 100 µM
GI50 (SF-295): > 85.5 µM (inactive)
GI50 (CAKI-1): > 100 µM (inactive)
GI50 (OVCAR-8): > 100 µM (inactive)
GI50 (EKVX): > 87.1 µM (inactive)
GI50 (MDA-N): > 80.5 µM (inactive)
GI50 (NCI-H226): > 100 µM (inactive)
GI50 (NCI/ADR-RES): > 100 µM (inactive)
GI50 (SF-539): > 93.8 µM (inactive)
GI50 (SK-MEL-2): > 83.9 µM (inactive)
GI50 (RPMI-8226): 55.3 µM (inactive)
GI50 (MDA-MB-231): > 100 µM (inactive)
GI50 (DU-145): > 100 µM (inactive)
GI50 (SNB-19): > 100 µM (inactive)
GI50 (SNB-75): > 100 µM (inactive)
GI50 (PC-3): > 100 µM (inactive)
GI50 (ACHN): > 100 µM (inactive)
GI50 (SF-268): > 100 µM (inactive)
GI50 (KM12): > 86.9 µM (inactive)
GI50 (UACC-257): > 64.3 µM (inactive)
GI50 (OVCAR-3): > 74.8 µM (inactive)
GI50 (NCI-H522): > 100 µM (inactive)
GI50 (UACC-62): > 100 µM (inactive)
